Assay results reported in patent US20100152188A1, “Novel Heterocyclic Compounds” (priority 2005, published 2010).

Legend:
HDAC = HDAC inhibition; assay type: biochemical; conditions: for HDAC Inhibition 1 μM: compound at 1 μM; for HDAC Inhibition 10 μM: compound at 10 μM
[1] = tested on: NCIH460, HCT116, MDAMB-231/U 251; test: Anti-cancer screen, mean GI50 over the cell lines; assay type: cell-based; conditions: in µM
Summary of the method: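 HCT116, NCIH460 and U251 cells (5000/well) were seeded for 24 h, then exposed in triplicate to 0.01, 0.1, 1, 10 and 100 µM final compound for 48 h. Viability was read by MTT (3 h, absorbance 570 nm), and percent growth was calculated against untreated controls and a T0 plate read at compound addition.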

MDAMB-231/U 251 = test: Anti-cancer screen (MTT), MDAMB-231/U 251; assay type: cell-based; conditions: for CC50: 48 h, read-out: MDAMB-231/U 251 LC50; for GI50 / IC (TGI): 48 hours with compound, MTT, tested at 0.01-100 µM
Summary of the method: (§1)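 Cells (5000/well) in DMEM with 10% FBS were seeded 24 h, then exposed to compounds at 0.01, 0.1, 1, 10 and 100 µM in triplicate for 48 h at 37 °C. MTT was added for 3 h, formazan dissolved in DMSO and absorbance read at 570 nm; GI50, TGI and LC50 derived from % growth versus T0.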

NCIH460 = test: Anti-cancer screen (MTT), NCIH460; assay type: cell-based; conditions: Homo sapiens, NCI-H460, 48 hours with compound, tested at 0.01-100 µM
Summary of the method: as §1

HCT116 = test: Anti-cancer screen (MTT), HCT116; assay type: cell-based; conditions: Homo sapiens, HCT-116, 48 hours with compound, tested at 0.01-100 µM
Summary of the method: as §1

Row | Compound | HDAC Inhibition 1 μM (HDAC) | HDAC Inhibition 10 μM (HDAC) | Mean GI50 [1] | CC50 (MDAMB-231/U 251) | GI50 (MDAMB-231/U 251) | IC (TGI) (MDAMB-231/U 251) | GI50 (NCIH460) | IC (TGI) (NCIH460) | LC50 (NCIH460) | GI50 (HCT116) | IC (TGI) (HCT116) | LC50 (concentration giving 50% net cell kill relative to T0) (HCT116)
1 | O=C(NCc1ccc(C(=O)NO)cc1)OCn1nnc2ccccc21 [Example 34, 1H-1,2,3-Benzotriazol-1-ylmethyl{4-[(hydroxyamino)carbonyl]benzyl}carbamate] | 62.1 | 98.6 | 49.3 | > 100 µM | 30 µM | > 100 µM | 58 µM | > 100 µM | > 100 µM | 60 µM | > 100 µM | > 100 µM
2 | O=C(NCc1ccc(C(=O)NO)cc1)OCc1ccnc2ccccc12 [Example 37, Quinolin-4-ylmethyl{4-[(hydroxyamino)carbonyl]benzyl}carbamate] | 67.04 | 85.01 | 13.3 | 95 µM | 4 µM | 18 µM | 30 µM | 58 µM | 90 µM | 6 µM | 20 µM | 65 µM
3 | CNC(=O)c1ccc(CNC(=O)OCc2cccs2)cc1 [Example 40, 2-Thienylmethyl{4-[(methylamino)carbonyl]benzyl}carbamate] | −1.9 | 8.6 | >100 | > 100 µM | 14 µM | > 100 µM | > 100 µM | > 100 µM | > 100 µM | 100 µM | > 100 µM | > 100 µM
4 | CONC(=O)c1ccc(CNC(=O)OCc2cccs2)cc1 [Example 43, 2-Thienylmethyl{4-[(methoxyamino)carbonyl]benzyl}carbamate] | 1.9 | 8.10 | >100 | > 100 µM | > 100 µM | > 100 µM | > 100 µM | > 100 µM | > 100 µM | > 100 µM | > 100 µM | > 100 µM
5 | CN(O)C(=O)c1ccc(CNC(=O)OCc2c(F)cc(F)cc2F)cc1 [Example 45, 2,4,6-Trifluorobenzyl(4-{[hydroxy(methyl)amino]carbonyl}benzyl)carbamate] | 4.28 | −0.76 | >100 | > 100 µM | 2.5 µM | 65 µM | 90 µM | > 100 µM | > 100 µM | > 100 µM | > 100 µM | > 100 µM
6 | CN(O)C(=O)c1ccc(CNC(=O)OCc2cccs2)cc1 [Example 46, 2-Thienylmethyl(4-{[hydroxy(methyl)amino]carbonyl}benzyl)carbamate] | −4.01 | −2.70 | 66 | > 100 µM | 40 µM | 90 µM | 70 µM | > 100 µM | > 100 µM | 88 µM | > 100 µM | > 100 µM
7 | CN(O)C(=O)c1ccc(CNC(=O)OCc2c(F)c(F)c(F)c(F)c2F)cc1 [Example 47, Tentafluorobenzyl(4-{[hydroxy(methyl)amino]carbonyl}benzyl)carbamate] | −5.89 | −2.12 | 48.33 | > 100 µM | 37 µM | 74 µM | 56 µM | > 100 µM | > 100 µM | 52 µM | > 100 µM | > 100 µM
8 | CON(C)C(=O)c1ccc(CNC(=O)OCc2cccs2)cc1 [Example 48, 2-Thienylmethyl(4-{[methoxy(methyl)amino]carbonyl}benzyl)carbamate] | 4.8 | 1.9 | 1.8 | > 100 µM | 0.03 µM | 57 µM | 1 µM | 31 µM | > 100 µM | 4.3 µM | 9 µM | 65 µM
9 | O=C(NCc1ccc(C(=O)N2CCN(Cc3ccc4c(c3)OCO4)CC2)cc1)OCc1cccs1 [Example 52, 2-Thienylmethyl(4-{[4-(1,3-benzodioxol-5-ylmethyl)piperazin-1-yl]carbonyl}benzyl)carbamate] | 2.2 | 4.1 | 0.6 | > 100 µM | 1.3 µM | > 100 µM | 0.04 µM | 0.5 µM | > 100 µM | 0.4 µM | 5.8 µM | > 100 µM
